The results in this text go back to US6515124B2, “Dehydroamino acids” (Hoffman-La Roche Inc., priority 2000, dated 2003).

Each structure is given as a SMILES string.

In assay [1] the test system is T lymphocyte proliferation (murine spleen cells). As to the kind of experiment: Mixed Lymphocyte Reaction (MLR), one-way. The assay is classed as cell-based, mice. Conditions: C57B1/6 spleen cells with irradiated BALB/c spleen cells, tritiated thymidine incorporation, 3 days. An excerpt: Mixed Lymphocyte Reaction (MLR)
Admixture of murine spleen cells from two different inbred strains of mice induces proliferation of T lymphocytes. The magnitude of T cell proliferation depends on the extent of disparity in the major histocompatibility antigens between the two strains. Splenic T lymphocytes from both strains proliferate due to alloantigen recognition, a process for which the interaction of ICAM-1 on antigen-presenting cells with LFA-1 on lymphocytes is necessary. The ability of antagonists to inhibit T lymphocyte proliferation following recognition of alloantigens was assessed in a one-way MLR, where cells from one strain were irradiated to permit measurement of the proliferative response of cells from the other strain. Spleen cells were washed three times in tissue culture medium (TCM; see below). Fifty microliters of a spleen cell suspension (prepared at 10×10^6 cells/ml in TCM) obtained from C57B1/6 mice were added to an equal number of lethally-irradiated (2000 rads) spleen cells obtained from BALB/c mice in a 96-well U-bottom tissue culture plate (Costar, 3799). One hundred microliters of serial dilutions of antagonists or TCM were added to the spleen cell mixture. The total volume in each well was 200 μL. TCM was RPMI1640 containing 10% heat-inactivated fetal bovine serum, […] L-glutamine, 100 Units/ml each of penicillin and streptomycin and 5×10^−5 M 2-mercaptoethanol. Dilutions of antagonists were prepared in TCM. Plates were incubated in 5% CO2 for 3 days. On the third day, 0.5 μCi of tritiated thymidine (10 μCi/mL) was added to all the wells. Cells were harvested 6 h later on a 96-well plate harvester and the amount of tritiated thymidine incorporated was assessed in a liquid scintillation counter.
(Uptake of a labelled nucleoside into DNA is a usual measure of proliferation.)

The target of assay [2] is T1, LFA-1 binding to immobilized ICAM-1 (Homo sapiens, UniProt P05107+P20701).
T1 construct: made in house; host or cells: transfected 293 cells (LFA-1)
T1 sequence (P20701 26-1170): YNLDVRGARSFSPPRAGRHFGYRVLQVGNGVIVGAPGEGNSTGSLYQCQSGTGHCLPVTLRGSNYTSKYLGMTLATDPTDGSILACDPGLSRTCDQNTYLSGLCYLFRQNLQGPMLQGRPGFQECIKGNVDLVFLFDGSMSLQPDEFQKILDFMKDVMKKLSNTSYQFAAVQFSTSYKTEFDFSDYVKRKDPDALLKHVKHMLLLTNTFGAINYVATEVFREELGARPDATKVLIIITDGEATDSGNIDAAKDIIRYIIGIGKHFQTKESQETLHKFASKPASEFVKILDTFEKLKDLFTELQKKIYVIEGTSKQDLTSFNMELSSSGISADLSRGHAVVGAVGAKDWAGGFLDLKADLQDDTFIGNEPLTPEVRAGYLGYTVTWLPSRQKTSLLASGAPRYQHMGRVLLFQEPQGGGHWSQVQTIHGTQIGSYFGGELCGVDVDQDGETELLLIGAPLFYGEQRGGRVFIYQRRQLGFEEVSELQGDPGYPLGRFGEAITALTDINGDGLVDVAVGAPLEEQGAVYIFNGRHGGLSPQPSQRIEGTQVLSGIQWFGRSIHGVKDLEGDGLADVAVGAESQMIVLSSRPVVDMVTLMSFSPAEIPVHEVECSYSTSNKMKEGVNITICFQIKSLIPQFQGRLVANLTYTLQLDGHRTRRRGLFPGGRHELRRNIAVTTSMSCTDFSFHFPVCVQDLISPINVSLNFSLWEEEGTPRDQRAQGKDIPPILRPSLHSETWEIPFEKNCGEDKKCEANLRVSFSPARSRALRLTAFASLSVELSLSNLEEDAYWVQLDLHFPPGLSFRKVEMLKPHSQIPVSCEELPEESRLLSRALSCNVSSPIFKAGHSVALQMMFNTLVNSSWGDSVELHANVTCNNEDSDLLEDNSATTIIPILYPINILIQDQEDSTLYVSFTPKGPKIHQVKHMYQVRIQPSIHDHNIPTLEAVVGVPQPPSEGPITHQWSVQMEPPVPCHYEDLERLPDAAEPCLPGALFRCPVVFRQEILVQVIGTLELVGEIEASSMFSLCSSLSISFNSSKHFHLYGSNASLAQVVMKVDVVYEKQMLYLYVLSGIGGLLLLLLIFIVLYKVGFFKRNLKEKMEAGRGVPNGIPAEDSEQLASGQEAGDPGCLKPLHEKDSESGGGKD
T1 sequence (P05107 23-769): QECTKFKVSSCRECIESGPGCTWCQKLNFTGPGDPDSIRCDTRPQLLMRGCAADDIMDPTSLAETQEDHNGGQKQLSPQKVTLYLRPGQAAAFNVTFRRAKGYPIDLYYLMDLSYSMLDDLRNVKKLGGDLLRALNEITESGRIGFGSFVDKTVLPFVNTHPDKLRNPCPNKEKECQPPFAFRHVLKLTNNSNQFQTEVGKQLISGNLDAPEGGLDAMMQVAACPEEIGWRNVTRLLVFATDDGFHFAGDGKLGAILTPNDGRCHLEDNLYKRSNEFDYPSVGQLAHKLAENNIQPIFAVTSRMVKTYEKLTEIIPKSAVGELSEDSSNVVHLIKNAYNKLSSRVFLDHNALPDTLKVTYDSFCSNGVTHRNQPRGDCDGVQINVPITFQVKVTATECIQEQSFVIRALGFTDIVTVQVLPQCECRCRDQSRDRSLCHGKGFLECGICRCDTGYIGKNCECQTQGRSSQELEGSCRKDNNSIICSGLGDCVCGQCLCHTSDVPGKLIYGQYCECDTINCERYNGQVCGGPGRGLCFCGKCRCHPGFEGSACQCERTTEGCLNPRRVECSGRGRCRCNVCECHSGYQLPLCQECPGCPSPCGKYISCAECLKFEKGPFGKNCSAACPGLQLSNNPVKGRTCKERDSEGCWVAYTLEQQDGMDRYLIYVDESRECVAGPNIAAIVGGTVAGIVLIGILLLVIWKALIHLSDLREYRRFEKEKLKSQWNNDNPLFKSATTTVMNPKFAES
As to the kind of experiment: LFA-1/ICAM-1 Protein-Protein Assay (solid-phase ELISA). Conditions: 5dICAM-Ig coated plates, membrane-bound LFA-1 from transfected 293 cells. As for the experimental part: LFA-1/ICAM-1 Protein-Protein Assay
LFA-1/ICAM-1 antagonist activity, defined as the ability to block LFA-1 binding to immobilized ICAM-1, was quantitated using a solid-phase ELISA. Typically, fusion protein consisting of the entire extracellular domain of human ICAM-1 and the Fc domain of human IgG (5dICAM-Ig) was coated onto 96-well microtiter plates (0.15 μg in 100 μL PBS) overnight at 4° C. The plates were then blocked with 150 μL of 1% BSA/1 mM MnCl2/0.14 M NaCl/20 mM HEPES, pH 7.2 for 1 h at 37° C. and washed 3 times (150 μL each) with Wash Buffer (50 mM Tris, pH 7.4/100 mM NaCl/1 mM MnCl2/0.05% Tween 20). Stock solutions (100 μM in 100% DMSO) of test compounds were diluted 50 fold with 150 μL of Binding Buffer (0.05% BSA/0.05% Tween 20/1 mM MnCl2/0.14 M NaCl/20 mM HEPES, pH 7.2) plus 10% DMSO. A series of 1:4 dilutions were performed to achieve a concentration range of 0.12 nM-2 μM. Fifty μL per well of each dilution was added to the ICAM-1 coated plates, followed by 50 μL per well of membrane-bound LFA-1 (280 ng/mL in Binding Buffer) derived from transfected 293 cells. The plates were shaken vigorously for 1 min (room temperature) and gently for 2 h (37° C.). After incubation, the plates were washed 3 times (150 μL each) with Wash Buffer. Mouse anti-human integrin β2 monoclonal antibody was added (100 μL/well, 1 μg/ml in Binding Buffer) and allowed to incubate for 1 h (37° C.) with gentle agitation. The plates were then washed 3 times with Wash Buffer. HRP-conjugated goat anti-mouse IgG (100 μL/well, 1:1500 dilution in Binding Buffer) was added to each well, followed by incubation for 1 h (37° C.) and concluded by three washes (150 μL each) with Wash Buffer. TMB solution (100 μL per well) was added for color development (10 min). The reaction was stopped by the addition of 100 μL of 1M H3PO4 to each well. The plates were then read at 450 nm.
(In general: ELISA stands for enzyme-linked immunosorbent assay.)

The mark [3] stands for this setting: Mus musculus, T-lymphocyte, light or radiation study, 72 h.

Usually IC50 stands for the concentration that inhibits the measured activity by half. For `Cc1cc(C(=O)N[C@H](C)c2cccc3ccccc23)cc(C)c1C(=O)N/C(=C\c1ncc[nH]1)C(=O)O` [Example 236], the values for the IC50 in assay [1] (setting [3]) and in assay [2] were 7180 nM and 25.6 nM, respectively.

For `Cc1cc(C(=O)N[C@H](C)c2cccc3ccccc23)cc(C)c1C(=O)N/C(=C\c1cnc2ccccc2c1)C(=O)O` [Example 241], the IC50 in assay [1] (setting [3]) was determined as 2600 nM; in assay [2] it was 2.04 nM.

On to `Cc1cc(C(=O)NCc2cccc(O)c2)ccc1C(=O)N/C(=C\c1ccccc1)C(=O)O` [Example 311], for which the figures for the IC50 in assay [1] (setting [3]) and in assay [2] were 10500 nM and 11.8 nM, respectively.

Consider `Cc1nc(C)c(/C=C(\NC(=O)c2ccc(C(O)CCc3cccc(O)c3)cc2Cl)C(=O)O)s1` (racemic) [Example 297, rac.-(Z)-2-[[2-Chloro-4-[1-hydroxy-3-(3-hydroxyphenyl)propan-1-yl]benzoyl]amino]-3-(2,4-dimethylthiazol-5-yl)propenoic Acid], for which the IC50 in assay [1] (setting [3]) is 5700 nM; in assay [2] it was 5.96 nM.

As to `O=C(O)/C(=C/c1cccnc1)NC(=O)c1ccc(C(=O)NCc2cccc(O)c2)cc1Br` [Example 279], the IC50 in assay [1] (setting [3]) turned out to be 1300 nM; in assay [2], 6.2 nM.

With `Cc1cc(C(=O)NCc2cccc(O)c2)ccc1C(=O)N/C(=C\c1ccc2cc[nH]c2c1)C(=O)O` [Example 316, (Z)-2-[[4-[[(3-Hydroxybenzyl)amino]carbonyl]-2-methylbenzoyl]amino]-3-(1N-indol-6-yl)propenoic Acid], the IC50 was 1150 nM in assay [1] (setting [3]) and 3 nM in assay [2].

For the molecule `O=C(O)/C(=C/c1ccc2[nH]nnc2c1)NC(=O)c1ccc(C(=O)NCc2cccc(O)c2)cc1Br` [Example 285], the concentration for half-maximal inhibition (IC50) came to 190 nM in assay [1] (listed as 285^c), 235 nM in assay [1] (setting [3]), 1.14 nM in assay [2] (disodium salt) and 0.34 nM in assay [2] (trifluoroacetate salt).

On to `O=C(O)/C(=C/c1cccc2ccccc12)NC(=O)c1ccc(C(=O)NCc2cccc(O)c2)cc1Br` [Example 270], for which the IC50 was determined as 20000 nM in assay [1] (setting [3]) and 20.3 nM in assay [2].

Consider `O=C(O)/C(=C/c1cnc[nH]1)NC(=O)c1ccc(C(=O)NCc2cccc(O)c2)cc1Br` [Example 278], for which the figures for the half-maximal inhibitory concentration (IC50) in assay [1] (setting [3]) and in assay [2] were 1450 nM and 2 nM, respectively.

For the molecule `O=C(O)/C(=C/c1ccc(Br)cc1)NC(=O)c1ccc(C(=O)NCc2cccc(O)c2)cc1Cl` [Example 314, (Z)-3-(4-Bromophenyl)-2-[[2-chloro-4-[[(3-hydroxybenzyl)amino]carbonyl]benzoyl]amino]propenoic Acid], the IC50 turned out to be 6100 nM in assay [1] (setting [3]) and 3.05 nM in assay [2].

On to `O=C(O)/C(=C/c1cnc(Cl)s1)NC(=O)c1ccc(C(=O)NCc2cccc(O)c2)cc1Cl` [Example 266], for which the figures for the IC50 in assay [1] (setting [3]) and in assay [2] were 9000 nM and 2.7 nM, respectively.

For `Cc1nc(C)c(/C=C(\NC(=O)c2c(C)cc(C(=O)N[C@H](C)c3cccc4ccccc34)cc2C)C(=O)O)s1` [Example 251], the results for the IC50 in assay [1] (setting [3]) and in assay [2] were 20000 nM and 20.5 nM, respectively.

`CN(C)c1ncc(/C=C(\NC(=O)c2ccc(C(=O)NCc3cccc(O)c3)cc2Br)C(=O)O)s1` [Example 260]: the values for the IC50 in assay [1] (setting [3]) and in assay [2] were 3000 nM and 0.77 nM, respectively.

In the case of `Cc1nc(C)c(/C=C(\NC(=O)c2ccc(C(O)/C=C/c3cccc(O)c3)cc2Cl)C(=O)O)s1` (racemic) [Example 299, rac.-(Z)-2-[[2-Chloro-4-[(E)-1-hydroxy-3-(3-hydroxyphenyl)prop-2-en-1-yl]benzoyl]amino]-3-(2,4-dimethylthiazol-5-yl)propenoic Acid], the IC50 in assay [1] (setting [3]) worked out at 10000 nM; in assay [2] it was 13.1 nM.

Consider `NS(=O)(=O)c1ccc(/C=C(\NC(=O)c2ccc(C(=O)NCc3cccc(O)c3)cc2Cl)C(=O)O)cc1` [Example 323, (Z)-3-(4-Aminosulfonylphenyl)-2-[[2-chloro-4-[[(3-hydroxybenzyl)amino]carbonyl]benzoyl]amino]propenoic Acid], for which the IC50 in assay [1] (setting [3]) was found to be 230 nM; in assay [2], 0.84 nM.

In the case of `O=C(O)/C(=C/c1cnc(N2CCOCC2)s1)NC(=O)c1ccc(C(=O)NCc2cccc(O)c2)cc1Br` [Example 261], the IC50 in assay [1] (setting [3]) is 26000 nM; in assay [2] it was 39.6 nM.

As for `O=C(O)/C(=C/c1ccc2ncsc2c1)NC(=O)c1ccc(C(=O)NCc2cccc(O)c2)cc1Cl` [Example 245], the IC50 amounted to 1380 nM in assay [1] (setting [3]) and 0.94 nM in assay [2].

`O=C(O)/C(=C/c1cnc2ccccc2c1)NC(=O)c1ccc(C(=O)NCc2cccc3[nH]ccc23)cc1Br` [Example 255]: the half-inhibitory concentration (IC50) in assay [1] (setting [3]) came to 14800 nM; in assay [2], 5.82 nM.

For the molecule `O=C(O)/C(=C/c1nc[nH]n1)NC(=O)c1ccc(C(=O)NCc2cccc(O)c2)cc1Br` [Example 290, (Z)-2-[[2-Bromo-4-[[(3-hydroxybenzyl)amino]carbonyl]benzoyl]amino]-3-(1,2,4triazol-3-yl)propenoic Acid], the IC50 in assay [1] (setting [3]) was 1300 nM; in assay [2] it was 13.4 nM.

With `Cc1cc(C(=O)NCc2cccc(O)c2)cc(Cl)c1C(=O)N/C(=C\c1ccc2[nH]nnc2c1)C(=O)O` [Example 291, (Z)-3-(1H-Benzotriazol-5-yl)-2-[[2-chloro-4-[[(3-hydroxybenzyl)amino]carbonyl]-6-methylbenzoyl]amino]propenoic Acid], the IC50 in assay [1] (setting [3]) was found to be 515 nM; in assay [2], 0.4 nM.

In the case of `Cc1cc(C(=O)NCc2cccc(O)c2)cc(Cl)c1C(=O)N/C(=C\c1ccccc1)C(=O)O` [Example 293, (Z)-2-[[2-Chloro-4-[[(3-hydroxybenzyl)amino]carbonyl]-6-methylbenzoyl]amino]-3-phenylpropenoic Acid], the IC50 is 7100 nM in assay [1] (setting [3]) and 1.29 nM in assay [2].

Take `Cc1nnsc1/C=C(\NC(=O)c1ccc(C(=O)NCc2cccc(O)c2)cc1Br)C(=O)O` [Example 263]: the IC50 in assay [1] (setting [3]) amounted to 2850 nM; in assay [2], 6.86 nM.

Regarding `Cc1nc(C)c(/C=C(\NC(=O)c2ccc(C(=O)NCc3cccc(O)c3)cc2Br)C(=O)O)s1` [Example 258], the IC50 amounted to 2740 nM in assay [1] (listed as 258^b), 2050 nM in assay [1] (setting [3]), 2.33 nM in assay [2] and 2.01 nM in assay [2] (mono sodium salt).

As for `Cc1nc(C)c(/C=C(\NC(=O)c2c(C)cc(C(=O)NCc3cccc(O)c3)cc2C)C(=O)O)s1` [Example 248], the IC50 in assay [1] (setting [3]) is 24000 nM; in assay [2], 3.96 nM.

In the case of `C[C@@H](NC(=O)c1cc(Cl)c(C(=O)N/C(=C\c2cnc3ccccc3c2)C(=O)O)c(Cl)c1)c1cccc2ccccc12` [Example 252], the IC50 came out at 2500 nM in assay [1] (setting [3]) and 2.68 nM in assay [2].

For `O=C(O)/C(=C/c1ccc2nsnc2c1)NC(=O)c1ccc(C(=O)NCc2cccc(O)c2)cc1Cl` [Example 247], the IC50 in assay [1] (setting [3]) amounted to 5150 nM; in assay [2], 2 nM.

For `O=C(O)/C(=C/c1cc2c(cc1Cl)OCO2)NC(=O)c1ccc(C(=O)NCc2cccc(O)c2)cc1Cl` [Example 315], the IC50 is 2500 nM in assay [1] (setting [3]) and 1.89 nM in assay [2].

In the case of `O=C(O)/C(=C/c1nccs1)NC(=O)c1ccc(C(=O)NCc2cccc(O)c2)cc1Br` [Example 268, (Z)-2-[[2-Bromo-4-[[(3-hydroxybenzyl)amino]carbonyl]benzoyl]amino]-3-(thiazol-2-yl)propenoic Acid], the IC50 was 9000 nM in assay [1] (setting [3]) and 10.6 nM in assay [2].
